The OPERA property sets (Mansouri et al. 2018)
In brackets after ≈: the same amount, converted by molar mass.

conditions: not given

**Q.** With `COc1ccc(C(=O)CCC(=O)O)cc1` as the compound, how does the logP read?
**A.** 1.38

**Q.** For `CC(C)(C)C(=O)OCn1ncc2c(O)ncnc21`, which logP is on record?
**A.** 1.07

**Q.** For `CCNC(=S)NCC`, which logP is on record?
**A.** 0.57

**Q.** For `CC[n+]1c(-c2ccccc2)c2cc(N)ccc2c2ccc(N)cc21.[Br-]`, which solubility is on record?
**A.** 50.7 mM

**Q.** For `COc1ccc([N+](=O)[O-])cc1NC(C)=O`, which logP is on record?
**A.** 1.6

**Q.** With `O=[N+]([O-])c1c2ccccc2cc2ccccc12` as the compound, how does the logP read?
**A.** 4.78

**Q.** Which logP does the source give for `O=[N+]([O-])c1ccc2c(c1)CCN2` here?
**A.** 2.07

**Q.** With `CCOC(=O)c1ccccc1C(=O)OCC` as the compound, how does the logP read?
**A.** 2.42

**Q.** For `Nc1ccc2c(c1)Cc1cc(Br)ccc1-2`, which logP is on record?
**A.** 3.92

**Q.** Which logP does the source give for `c1ccc2cc3c(ccc4ccccc43)cc2c1` here?
**A.** 5.76

**Q.** With `OCCC(F)(F)C(F)(F)C(F)(F)C(F)(F)C(F)(F)C(F)(F)C(F)(F)C(F)(F)F` as the compound, how does the logP read?
**A.** 5.58

**Q.** With `Clc1cc2c(cc1Cl)-c1cc(Cl)c(Cl)cc1-2` as the compound, how does the logP read?
**A.** 6.14

**Q.** With `COc1cccc(OCCN(C)C)c1` as the compound, how does the logP read?
**A.** 1.69

**Q.** For `Cn1cnc2c(N)ncnc21`, which logP is on record?
**A.** -0.03

**Q.** For `CC(=O)Oc1ccc(N(C)C(=O)C(Cl)Cl)cc1`, which logP is on record?
**A.** 1.56

**Q.** Which logP does the source give for `Clc1cc(Cl)c2[nH]c3c(Cl)cc(Cl)cc3c2c1` here?
**A.** 5.75

**Q.** Which logP does the source give for `NCCc1nc(-c2ccccc2)cs1` here?
**A.** 2.22

**Q.** With `CC(=O)OCCOCn1cnc2c(=O)[nH]c(N)nc21` as the compound, how does the logP read?
**A.** -1.07

**Q.** With `CC(CCC(=O)O)C1CCC2C3C(O)CC4CC(O)CCC4(C)C3CCC12C` (centres undefined) as the compound, how does the logP read?
**A.** 3

**Q.** Which logP does the source give for `CC(=O)OCN1C(=O)c2cccc3cccc(c23)C1=O` here?
**A.** 2.34

**Q.** With `C=C(C)C(N)=O` as the compound, how does the logP read?
**A.** -1.11

**Q.** With `O=[N+]([O-])c1ccc(Cl)cc1Cl` as the compound, how does the logP read?
**A.** 3.07

**Q.** For `c1ccc2c(c1)cc1ccc3cccc4ccc2c1c34`, which logP is on record?
**A.** 6.13

**Q.** Which logP does the source give for `N[C@@H](CSSC[C@H](N)C(=O)O)C(=O)O` here?
**A.** -5.08

**Q.** For `O=CC=Cc1ccc([N+](=O)[O-])o1`, which logP is on record?
**A.** 0.96

**Q.** With `CS(=O)CCCOc1ccc([N+](=O)[O-])cc1` (centres undefined) as the compound, how does the logP read?
**A.** 0.93

**Q.** With `N#CCCCCCC#N` as the compound, how does the logP read?
**A.** 0.05

**Q.** With `O=c1[nH]c2ccccc2n1CCCN1CCC(n2c(=O)[nH]c3cc(Cl)ccc32)CC1` as the compound, how does the logP read?
**A.** 3.9

**Q.** With `CC(O)CNc1ccccc1C(N)=O` (centres undefined) as the compound, how does the logP read?
**A.** 0.62

same assay, conditions: 20 °C

**Q.** With `c1ccc(C2CO2)cc1` (centres undefined) as the compound, how does the solubility read?
**A.** 25 mM (≈ 3 mg/mL)

**Q.** With `NC(=O)c1ccccc1C(N)=O` as the compound, how does the solubility read?
**A.** 3.66 mM (≈ 0.6 mg/mL)

**Q.** Which solubility does the source give for `N#CCCCCC#N` here?
**A.** 740 mM (≈ 80 mg/mL)

**Q.** With `C=COC` as the compound, how does the solubility read?
**A.** 258 mM (≈ 15 mg/mL)

**Q.** For `ClCCOCCCl`, which solubility is on record?
**A.** 120 mM (≈ 17.2 mg/mL)

same assay, conditions: 22 °C

**Q.** With `ClC=CCCl` (mixture of isomers) as the compound, how does the solubility read?
**A.** 14.5 mM

same assay, conditions: 24.0 °C

**Q.** With `C[Si]1(C)O[Si](C)(C)O[Si](C)(C)O1` as the compound, how does the log10 OH rate constant (cm³/molecule/s) read?
**A.** -12.3

same assay, conditions: 25 °C

**Q.** With `CC(C)CCO[N+](=O)[O-]` as the compound, how does the solubility read?
**A.** 3.3 mM (≈ 0.44 mg/mL)

**Q.** For `O=Nc1ccc2ccccc2c1O`, which solubility is on record?
**A.** 2.89 mM (≈ 0.5 mg/mL)

**Q.** Which solubility does the source give for `CCCN(CCC)c1c([N+](=O)[O-])cc(C(C)C)cc1[N+](=O)[O-]` here?
**A.** 0.000339 mM (≈ 0.000105 mg/mL)

**Q.** Which solubility does the source give for `C[Si](C)(C)O[Si](C)(C)O[Si](C)(C)C` here?
**A.** 0.000144 mM (≈ 3.4e-05 mg/mL)

**Q.** For `CC(=O)N(C)N=O`, which solubility is on record?
**A.** 170 mM (≈ 17.4 mg/mL)

**Q.** Which solubility does the source give for `CCCC(C)Cl` (centres undefined) here?
**A.** 3.2 mM (≈ 0.341 mg/mL)

**Q.** For `Clc1cc2ccccc2cc1Cl`, which solubility is on record?
**A.** 0.00044 mM (≈ 8.67e-05 mg/mL)

**Q.** For `O=C1CCO1`, which solubility is on record?
**A.** 5130 mM (≈ 370 mg/mL)

**Q.** Which solubility does the source give for `CC(C)(C)c1cccc(C(C)(C)C)c1O` here?
**A.** 0.0121 mM (≈ 0.0025 mg/mL)

**Q.** With `c1ccc2c(c1)ccc1c3ccc4ccccc4c3[nH]c21` as the compound, how does the solubility read?
**A.** 3.78e-05 mM (≈ 1.01e-05 mg/mL)

**Q.** For `CCCCCCC(C)O` (racemic), which solubility is on record?
**A.** 9.2 mM (≈ 1.2 mg/mL)

**Q.** Which solubility does the source give for `CC(=O)OCC(=O)[C@@]1(O)CC[C@H]2[C@@H]3CCC4=CC(=O)C=C[C@]4(C)[C@H]3[C@@H](O)C[C@@]21C` here?
**A.** 0.0427 mM (≈ 0.0172 mg/mL)

**Q.** Which solubility does the source give for `COc1c(Cl)ccc(Cl)c1C(=O)O` here?
**A.** 27.7 mM (≈ 6.12 mg/mL)

**Q.** Which solubility does the source give for `Oc1nc(O)nc(O)n1` here?
**A.** 15.5 mM (≈ 2 mg/mL)

**Q.** Which solubility does the source give for `Clc1c(Cl)c(Cl)c2c(oc3c(Cl)c(Cl)c(Cl)c(Cl)c32)c1Cl` here?
**A.** 2.61e-09 mM (≈ 1.16e-09 mg/mL)

**Q.** With `O=C(O)CCC1CCCC1` as the compound, how does the solubility read?
**A.** 17 mM (≈ 2.42 mg/mL)

**Q.** Which solubility does the source give for `CC(O)COc1ccccc1` (centres undefined) here?
**A.** 72.3 mM (≈ 11 mg/mL)

**Q.** With `Cc1ccc2c(c1N)C(=O)c1ccccc1C2=O` as the compound, how does the solubility read?
**A.** 0.0014 mM (≈ 0.000332 mg/mL)

**Q.** With `O=[N+]([O-])c1c2ccccc2cc2ccccc12` as the compound, how does the solubility read?
**A.** 0.000511 mM (≈ 0.000114 mg/mL)

**Q.** With `C=C(Cl)CCl` as the compound, how does the solubility read?
**A.** 19.4 mM (≈ 2.15 mg/mL)

**Q.** For `Nc1ccc(Cl)cc1`, which solubility is on record?
**A.** 30.6 mM (≈ 3.9 mg/mL)

**Q.** With `CCC(C)n1c(=O)[nH]c(C)c(Br)c1=O` (centres undefined) as the compound, how does the solubility read?
**A.** 3.12 mM (≈ 0.815 mg/mL)

**Q.** With `Brc1ccc(Br)c(-c2cc(Br)c(Br)cc2Br)c1` as the compound, how does the solubility read?
**A.** 1.88e-07 mM (≈ 1.03e-07 mg/mL)

**Q.** With `c1ccc2c(c1)cc1ccc3cccc4ccc2c1c34` as the compound, how does the solubility read?
**A.** 6.42e-06 mM (≈ 1.62e-06 mg/mL)

**Q.** With `NC(N)=O` as the compound, how does the solubility read?
**A.** 9070 mM (≈ 545 mg/mL)

same assay, conditions: 25.0 °C

**Q.** For `FC(C(F)(F)F)C(F)(F)F`, which log10 OH rate constant (cm³/molecule/s) is on record?
**A.** -14.8

**Q.** Which log10 OH rate constant (cm³/molecule/s) does the source give for `CC1OCCO1` here?
**A.** -11

**Q.** With `c1ccc2c(c1)Oc1ccccc1O2` as the compound, how does the log10 OH rate constant (cm³/molecule/s) read?
**A.** -10.9

**Q.** Which log10 OH rate constant (cm³/molecule/s) does the source give for `CCCCCl` here?
**A.** -11.8

**Q.** With `FC(F)(F)C(F)(F)C(F)(F)C(F)(F)N(C(F)(F)C(F)(F)C(F)(F)C(F)(F)F)C(F)(F)C(F)(F)C(F)(F)C(F)(F)F` as the compound, how does the log10 OH rate constant (cm³/molecule/s) read?
**A.** < -16.2

**Q.** For `O=CC(Cl)Cl`, which log10 OH rate constant (cm³/molecule/s) is on record?
**A.** -11.6

**Q.** Which log10 OH rate constant (cm³/molecule/s) does the source give for `COC(=O)CCC(=O)OC` here?
**A.** -11.9

**Q.** For `Cc1ccc(C(C)(C)C)cc1`, which log10 OH rate constant (cm³/molecule/s) is on record?
**A.** -10.9

**Q.** Which log10 OH rate constant (cm³/molecule/s) does the source give for `FC(F)C(F)(F)C(F)(F)C(F)F` here?
**A.** -14.3

**Q.** Which log10 OH rate constant (cm³/molecule/s) does the source give for `CC(F)(F)CC(F)(F)F` here?
**A.** -14.1

**Q.** With `FC(F)OC(F)(F)C(F)Cl` (centres undefined) as the compound, how does the log10 OH rate constant (cm³/molecule/s) read?
**A.** -13.9

**Q.** Which log10 OH rate constant (cm³/molecule/s) does the source give for `CC/C=C\CCOC(C)=O` here?
**A.** -10.1

**Q.** With `C=C(C)OC(C)=O` as the compound, how does the log10 OH rate constant (cm³/molecule/s) read?
**A.** -10.2

same assay, conditions: 27 °C

**Q.** Which solubility does the source give for `NCCc1c[nH]c2ccc(O)cc12` here?
**A.** 114 mM (≈ 20 mg/mL)

same assay, conditions: 27.0 °C

**Q.** Which log10 OH rate constant (cm³/molecule/s) does the source give for `CCC(=O)NC` here?
**A.** -11.1

**Q.** With `Cc1cccc(O)c1O` as the compound, how does the log10 OH rate constant (cm³/molecule/s) read?
**A.** -9.69

same assay, conditions: 30 °C

**Q.** For `CN(C)C`, which solubility is on record?
**A.** 15100 mM (≈ 890 mg/mL)

**Q.** For `Nc1ccccc1[N+](=O)[O-]`, which solubility is on record?
**A.** 10.6 mM (≈ 1.47 mg/mL)
